Assay results reported in article PMC3933419, “Synthesis and Properties of a Selective Inhibitor of Homeodomain–Interacting Protein Kinase 2 (HIPK2)” (PLoS ONE, 2014).

Columns and labels:
Format in all cases: biochemical
HIPK2 [1] = target: T1, HIPK2 (Homo sapiens, UniProt Q9H2X6); experiment: Kinetic analysis of HIPK2 inhibition (Lineweaver-Burk)
T1 construct: The source of HIPK2 and of all of the other protein kinases used for specificity assays is as described elsewhere
Method: Initial velocities were determined at each of the ATP concentration tested, at 1 mM […] peptide concentration. Km values were calculated either in the absence or in the presence of increasing concentrations of inhibitor, from Lineweaver-Burk double-reciprocal plots of the data. Inhibition constants were then calculated by linear regression analysis of Km/Vmax versus inhibitor concentration plots.

PDK1 = PDK1 (Homo sapiens, UniProt O15530); experiment: Kinase panel selectivity profiling; settings: TBID 1 μM, 125 kinase panel, read-out: % activity of the enzyme
From the text: (§1) The source of HIPK2 and of all of the other protein kinases used for specificity assays is as described elsewhere.
(§2) Conditions for the activity assays of all other protein kinases tested in selectivity experiments are as described or referenced in [9].

TLK1 = TLK1 (Homo sapiens, UniProt Q9UKI8); experiment: Kinase panel selectivity profiling; settings: TBID 1 μM, 125 kinase panel, read-out: % activity of the enzyme
Chain of TLK1 (Q9UKI8 whole entry): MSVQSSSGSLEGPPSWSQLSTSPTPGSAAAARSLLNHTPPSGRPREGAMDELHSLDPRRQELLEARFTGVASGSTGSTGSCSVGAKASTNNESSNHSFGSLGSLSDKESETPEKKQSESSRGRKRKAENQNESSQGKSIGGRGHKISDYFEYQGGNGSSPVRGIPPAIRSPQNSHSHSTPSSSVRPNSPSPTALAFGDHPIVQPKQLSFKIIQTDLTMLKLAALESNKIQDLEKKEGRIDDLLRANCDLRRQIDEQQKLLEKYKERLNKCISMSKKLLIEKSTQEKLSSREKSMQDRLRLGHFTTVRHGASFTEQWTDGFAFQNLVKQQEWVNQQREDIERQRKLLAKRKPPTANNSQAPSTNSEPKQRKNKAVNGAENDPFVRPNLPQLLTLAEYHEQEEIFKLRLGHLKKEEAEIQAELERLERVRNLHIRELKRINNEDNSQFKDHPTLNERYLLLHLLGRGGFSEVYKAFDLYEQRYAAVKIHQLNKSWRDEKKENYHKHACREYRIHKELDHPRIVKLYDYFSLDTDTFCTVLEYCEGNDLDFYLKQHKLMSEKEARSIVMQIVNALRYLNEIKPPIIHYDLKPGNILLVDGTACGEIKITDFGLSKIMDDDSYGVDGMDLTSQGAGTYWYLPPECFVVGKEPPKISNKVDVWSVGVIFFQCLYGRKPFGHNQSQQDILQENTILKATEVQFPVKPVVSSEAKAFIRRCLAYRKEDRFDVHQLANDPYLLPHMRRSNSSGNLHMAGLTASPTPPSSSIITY
From the text: as §1, §2

NUAK1 = NUAK1 (Homo sapiens, UniProt O60285); experiment: Kinase panel selectivity profiling; settings: TBID 1 μM, 125 kinase panel, read-out: % activity of the enzyme
From the text: as §1, §2

p38g MAPK = p38g MAPK (Homo sapiens, UniProt P53778); experiment: Kinase panel selectivity profiling; settings: TBID 1 μM, 125 kinase panel, read-out: % activity of the enzyme
From the text: as §1, §2

ZAP70 = ZAP70 (Homo sapiens, UniProt P43403); experiment: Kinase panel selectivity profiling; settings: TBID 1 μM, 125 kinase panel, read-out: % activity of the enzyme
Chain of ZAP70 (P43403 whole entry): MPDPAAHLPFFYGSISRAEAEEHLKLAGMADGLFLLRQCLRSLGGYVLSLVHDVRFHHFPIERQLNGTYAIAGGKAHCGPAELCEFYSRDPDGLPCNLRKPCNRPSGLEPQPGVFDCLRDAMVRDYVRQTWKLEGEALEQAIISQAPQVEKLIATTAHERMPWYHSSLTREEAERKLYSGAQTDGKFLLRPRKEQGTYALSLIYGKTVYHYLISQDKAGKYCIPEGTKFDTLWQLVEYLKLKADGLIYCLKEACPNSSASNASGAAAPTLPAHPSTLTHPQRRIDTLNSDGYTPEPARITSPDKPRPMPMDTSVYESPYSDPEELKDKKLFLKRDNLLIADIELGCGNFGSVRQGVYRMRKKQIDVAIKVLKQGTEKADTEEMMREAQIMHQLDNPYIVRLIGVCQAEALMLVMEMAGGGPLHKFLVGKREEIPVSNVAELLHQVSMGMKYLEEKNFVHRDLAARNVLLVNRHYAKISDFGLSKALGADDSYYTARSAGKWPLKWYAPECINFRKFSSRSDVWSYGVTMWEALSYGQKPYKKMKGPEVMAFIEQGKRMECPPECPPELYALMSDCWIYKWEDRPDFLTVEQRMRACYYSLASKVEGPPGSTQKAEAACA
From the text: as §1, §2

RIPK2 = RIPK2 (Homo sapiens, UniProt O43353); experiment: Kinase panel selectivity profiling; settings: TBID 1 μM, 125 kinase panel, read-out: % activity of the enzyme
From the text: as §1, §2

IKKb = IKKb (Homo sapiens, UniProt O14920); experiment: Kinase panel selectivity profiling; settings: TBID 1 μM, 125 kinase panel, read-out: % activity of the enzyme
From the text: as §1, §2

PKCa = PKCa (Homo sapiens, UniProt P17252); experiment: Kinase panel selectivity profiling; settings: TBID 1 μM, 125 kinase panel, read-out: % activity of the enzyme
From the text: as §1, §2

CSK = CSK (Homo sapiens, UniProt P41240); experiment: Kinase panel selectivity profiling; settings: TBID 1 μM, 125 kinase panel, read-out: % activity of the enzyme
From the text: as §1, §2

ROCK 2 = ROCK 2 (Homo sapiens, UniProt O75116); experiment: Kinase panel selectivity profiling; settings: TBID 1 μM, 125 kinase panel, read-out: % activity of the enzyme
From the text: as §1, §2

ASK1 = ASK1 (Homo sapiens, UniProt Q99683); experiment: Kinase panel selectivity profiling; settings: TBID 1 μM, 125 kinase panel, read-out: % activity of the enzyme
From the text: as §1, §2

CHK2 = CHK2 (Homo sapiens, UniProt O96017); experiment: Kinase panel selectivity profiling; settings: TBID 1 μM, 125 kinase panel, read-out: % activity of the enzyme
From the text: as §1, §2

ERK2 = ERK2 (Homo sapiens, UniProt P28482); experiment: Kinase panel selectivity profiling; settings: TBID 1 μM, 125 kinase panel, read-out: % activity of the enzyme
From the text: as §1, §2

GCK = GCK (Homo sapiens, UniProt Q12851); experiment: Kinase panel selectivity profiling; settings: TBID 1 μM, 125 kinase panel, read-out: % activity of the enzyme
From the text: as §1, §2

JNK2 = JNK2 (Homo sapiens, UniProt P45984); experiment: Kinase panel selectivity profiling; settings: TBID 1 μM, 125 kinase panel, read-out: % activity of the enzyme
Chain of JNK2 (P45984 whole entry): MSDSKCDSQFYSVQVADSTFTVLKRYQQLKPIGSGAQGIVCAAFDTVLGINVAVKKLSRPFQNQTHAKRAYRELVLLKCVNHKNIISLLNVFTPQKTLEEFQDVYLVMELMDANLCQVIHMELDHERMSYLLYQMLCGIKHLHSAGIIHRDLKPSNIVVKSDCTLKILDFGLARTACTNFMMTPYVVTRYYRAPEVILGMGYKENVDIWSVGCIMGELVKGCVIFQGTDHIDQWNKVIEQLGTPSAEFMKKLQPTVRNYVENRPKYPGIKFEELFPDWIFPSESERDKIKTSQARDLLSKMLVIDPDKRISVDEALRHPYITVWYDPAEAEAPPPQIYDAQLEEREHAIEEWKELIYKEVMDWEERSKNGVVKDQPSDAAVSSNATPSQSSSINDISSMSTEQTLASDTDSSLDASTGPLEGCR
From the text: as §1, §2

NEK6 = NEK6 (Homo sapiens, UniProt Q9HC98); experiment: Kinase panel selectivity profiling; settings: TBID 1 μM, 125 kinase panel, read-out: % activity of the enzyme
From the text: as §1, §2

ERK8 = ERK8 (Homo sapiens, UniProt Q8TD08); experiment: Kinase panel selectivity profiling; settings: TBID 1 μM, 125 kinase panel, read-out: % activity of the enzyme
From the text: as §1, §2

PIM3 = PIM3 (Homo sapiens, UniProt Q86V86); experiment: Kinase panel selectivity profiling; settings: TBID 1 μM, 125 kinase panel, read-out: % activity of the enzyme
From the text: as §1, §2

CK2 = CK2 (Homo sapiens, UniProt P68400); experiment: Kinase panel selectivity profiling
Chain of CK2 (P68400 whole entry): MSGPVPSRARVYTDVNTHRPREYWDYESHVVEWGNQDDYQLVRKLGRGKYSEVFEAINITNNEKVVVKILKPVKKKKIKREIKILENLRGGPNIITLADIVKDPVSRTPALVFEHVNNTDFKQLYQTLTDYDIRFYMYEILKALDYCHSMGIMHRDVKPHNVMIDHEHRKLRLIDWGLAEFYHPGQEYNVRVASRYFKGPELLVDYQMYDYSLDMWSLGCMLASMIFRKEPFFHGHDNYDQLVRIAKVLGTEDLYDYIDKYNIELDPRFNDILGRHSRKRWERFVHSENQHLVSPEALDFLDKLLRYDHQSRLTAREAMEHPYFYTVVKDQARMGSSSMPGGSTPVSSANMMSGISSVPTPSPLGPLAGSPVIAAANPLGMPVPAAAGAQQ
From the text: as §1, §2

EF2K = EF2K (Homo sapiens, UniProt O00418); experiment: Kinase panel selectivity profiling; settings: TBID 1 μM, 125 kinase panel, read-out: % activity of the enzyme
From the text: as §1, §2

STK33 = STK33 (Homo sapiens, UniProt Q9BYT3); experiment: Kinase panel selectivity profiling; settings: TBID 1 μM, 125 kinase panel, read-out: % activity of the enzyme
From the text: as §1, §2

Aurora B = Aurora B (Homo sapiens, UniProt Q96GD4); experiment: Kinase panel selectivity profiling; settings: TBID 1 μM, 125 kinase panel, read-out: % activity of the enzyme
From the text: as §1, §2

GSK3b = GSK3b (Homo sapiens, UniProt P49841); experiment: Kinase panel selectivity profiling; settings: TBID 1 μM, 125 kinase panel, read-out: % activity of the enzyme
From the text: as §1, §2

PRAK = PRAK (Homo sapiens, UniProt Q8IW41); experiment: Kinase panel selectivity profiling; settings: TBID 1 μM, 125 kinase panel, read-out: % activity of the enzyme
From the text: as §1, §2

PIM2 = PIM2 (Homo sapiens, UniProt Q9P1W9); experiment: Kinase panel selectivity profiling; settings: TBID 1 μM, 125 kinase panel, read-out: % activity of the enzyme
From the text: as §1, §2

YES1 = YES1 (Homo sapiens, UniProt P07947); experiment: Kinase panel selectivity profiling; settings: TBID 1 μM, 125 kinase panel, read-out: % activity of the enzyme
Chain of YES1 (P07947 whole entry): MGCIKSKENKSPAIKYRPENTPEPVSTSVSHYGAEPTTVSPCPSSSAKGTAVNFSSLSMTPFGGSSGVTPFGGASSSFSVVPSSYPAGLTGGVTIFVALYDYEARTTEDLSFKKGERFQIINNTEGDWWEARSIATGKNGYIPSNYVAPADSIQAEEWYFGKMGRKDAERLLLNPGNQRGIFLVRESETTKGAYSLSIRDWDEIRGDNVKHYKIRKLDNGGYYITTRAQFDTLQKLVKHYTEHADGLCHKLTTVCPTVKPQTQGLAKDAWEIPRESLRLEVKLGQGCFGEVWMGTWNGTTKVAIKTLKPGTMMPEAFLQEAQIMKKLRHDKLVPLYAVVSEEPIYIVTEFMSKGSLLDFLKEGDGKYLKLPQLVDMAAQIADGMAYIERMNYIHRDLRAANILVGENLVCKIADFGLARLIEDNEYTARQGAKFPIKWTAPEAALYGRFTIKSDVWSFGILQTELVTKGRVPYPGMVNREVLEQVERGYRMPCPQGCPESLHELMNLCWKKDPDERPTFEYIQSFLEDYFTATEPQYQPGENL
From the text: as §1, §2

PAK6 = PAK6 (Homo sapiens, UniProt Q9NQU5); experiment: Kinase panel selectivity profiling; settings: TBID 1 μM, 125 kinase panel, read-out: % activity of the enzyme
From the text: as §1, §2

IRAK4 = IRAK4 (Homo sapiens, UniProt Q9NWZ3); experiment: Kinase panel selectivity profiling; settings: TBID 1 μM, 125 kinase panel, read-out: % activity of the enzyme
From the text: as §1, §2

CAMKKb = CAMKKb (Homo sapiens, UniProt Q96RR4); experiment: Kinase panel selectivity profiling
Chain of CAMKKb (Q96RR4 whole entry): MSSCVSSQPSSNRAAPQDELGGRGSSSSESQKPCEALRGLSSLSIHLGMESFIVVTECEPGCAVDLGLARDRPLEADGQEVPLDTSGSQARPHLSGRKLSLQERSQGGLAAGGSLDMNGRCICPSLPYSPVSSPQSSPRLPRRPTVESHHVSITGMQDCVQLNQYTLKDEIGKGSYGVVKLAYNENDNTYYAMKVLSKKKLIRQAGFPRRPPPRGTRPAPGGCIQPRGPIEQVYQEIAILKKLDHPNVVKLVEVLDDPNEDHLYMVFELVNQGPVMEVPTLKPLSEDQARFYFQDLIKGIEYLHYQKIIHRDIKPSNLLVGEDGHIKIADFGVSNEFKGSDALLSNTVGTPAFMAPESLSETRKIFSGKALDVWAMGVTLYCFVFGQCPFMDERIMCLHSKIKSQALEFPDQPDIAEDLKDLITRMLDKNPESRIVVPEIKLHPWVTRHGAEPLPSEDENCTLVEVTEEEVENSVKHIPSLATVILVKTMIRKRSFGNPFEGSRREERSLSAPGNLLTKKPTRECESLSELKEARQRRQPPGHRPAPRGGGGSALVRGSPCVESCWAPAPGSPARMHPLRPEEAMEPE
From the text: as §1, §2

PKA = PKA (Homo sapiens, UniProt P17612); experiment: Kinase panel selectivity profiling; settings: TBID 1 μM, 125 kinase panel, read-out: % activity of the enzyme
From the text: as §1, §2

OSR1 = OSR1 (Homo sapiens, UniProt O95747); experiment: Kinase panel selectivity profiling; settings: TBID 1 μM, 125 kinase panel, read-out: % activity of the enzyme
From the text: as §1, §2

IRR = IRR (Homo sapiens, UniProt P14616); experiment: Kinase panel selectivity profiling; settings: TBID 1 μM, 125 kinase panel, read-out: % activity of the enzyme
From the text: as §1, §2

MST2 = MST2 (Homo sapiens, UniProt Q13188); experiment: Kinase panel selectivity profiling; settings: TBID 1 μM, 125 kinase panel, read-out: % activity of the enzyme
From the text: as §1, §2

MAPKAP-K3 = MAPKAP-K3 (Homo sapiens, UniProt Q16644); experiment: Kinase panel selectivity profiling; settings: TBID 1 μM, 125 kinase panel, read-out: % activity of the enzyme
From the text: as §1, §2

DAPK1 = DAPK1 (Homo sapiens, UniProt P53355); experiment: Kinase panel selectivity profiling; settings: TBID 1 μM, 125 kinase panel, read-out: % activity of the enzyme
From the text: as §1, §2

HIPK2 [2] = target: T1, HIPK2; experiment: HIPK2 kinase inhibition assay (33P-ATP, peptide […]); settings: 20 µM ATP; in vitro
Method: The source of HIPK2 and of all of the other protein kinases used for specificity assays is as described elsewhere. […] The reaction was stopped by addition of 5 μl of 0.5 M orthophosphoric acid before spotting aliquots onto phosphocellulose filters. Filters were washed in 75 mM phosphoric acid (5-10 ml/each) four times and then once in methanol and dried before counting.

[3] = 10 µM TBID, panel of 76 protein kinases, read-out: residual activity
[4] = TBID 1 μM, 125 kinase panel, read-out: % activity of the enzyme

T1 sequence (Q9H2X6 whole entry): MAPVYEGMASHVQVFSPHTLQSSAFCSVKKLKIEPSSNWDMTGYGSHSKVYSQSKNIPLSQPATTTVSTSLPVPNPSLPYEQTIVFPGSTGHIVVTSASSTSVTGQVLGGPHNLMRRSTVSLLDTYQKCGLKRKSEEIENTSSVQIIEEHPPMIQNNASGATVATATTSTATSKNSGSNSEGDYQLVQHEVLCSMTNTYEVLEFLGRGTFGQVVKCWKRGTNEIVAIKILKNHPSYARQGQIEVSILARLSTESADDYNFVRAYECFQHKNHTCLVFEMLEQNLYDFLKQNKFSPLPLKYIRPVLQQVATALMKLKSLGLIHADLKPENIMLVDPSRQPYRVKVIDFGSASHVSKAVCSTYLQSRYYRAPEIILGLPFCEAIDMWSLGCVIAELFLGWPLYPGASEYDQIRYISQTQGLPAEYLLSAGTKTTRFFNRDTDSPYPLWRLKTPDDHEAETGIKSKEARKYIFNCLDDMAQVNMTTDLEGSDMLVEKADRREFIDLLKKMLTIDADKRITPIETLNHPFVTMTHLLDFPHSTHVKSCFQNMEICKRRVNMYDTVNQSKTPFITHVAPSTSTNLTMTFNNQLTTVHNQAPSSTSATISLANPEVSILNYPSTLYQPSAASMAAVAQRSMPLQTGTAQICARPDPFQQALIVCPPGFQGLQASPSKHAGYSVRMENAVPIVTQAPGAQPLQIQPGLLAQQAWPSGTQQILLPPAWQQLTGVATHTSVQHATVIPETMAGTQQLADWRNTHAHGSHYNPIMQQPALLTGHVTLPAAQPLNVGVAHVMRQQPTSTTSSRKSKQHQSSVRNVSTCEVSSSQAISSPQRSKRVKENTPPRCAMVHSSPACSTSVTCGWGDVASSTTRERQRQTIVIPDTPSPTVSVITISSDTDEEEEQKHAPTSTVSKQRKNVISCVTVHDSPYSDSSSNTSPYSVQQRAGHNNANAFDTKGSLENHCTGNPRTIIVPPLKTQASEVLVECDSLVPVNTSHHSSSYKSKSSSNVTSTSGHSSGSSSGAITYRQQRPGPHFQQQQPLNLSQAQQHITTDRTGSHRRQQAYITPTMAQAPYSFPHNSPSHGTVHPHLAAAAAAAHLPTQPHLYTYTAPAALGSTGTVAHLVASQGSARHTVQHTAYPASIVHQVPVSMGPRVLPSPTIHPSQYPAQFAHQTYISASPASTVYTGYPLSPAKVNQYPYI

## O=C1c2c(Br)c(Br)c(Br)c(Br)c2C(=O)N1c1ncc[nH]1 [TBID, 4,5,6,7-Tetrabromo-2-(1H-imidazol-2-yl)isoindoline-1,3-dione]
HIPK2 [1]
  Ki: 200 nM
HIPK2 [1]; with respect to ATP
  mode of inhibition of HIPK2: competitive with respect to ATP
PDK1
  activity at 1 µM: 97%
TLK1
  activity at 1 µM: 107%
NUAK1
  activity at 1 µM: 81%
p38g MAPK
  activity at 1 µM: 101%
ZAP70
  activity at 1 µM: 91%
RIPK2
  activity at 1 µM: 102%
IKKb
  activity at 1 µM: 99%
PKCa
  activity at 1 µM: 102%
CSK
  activity at 1 µM: 89%
ROCK 2
  activity at 1 µM: 117%
ASK1
  activity at 1 µM: 126%
CHK2
  activity at 1 µM: 100%
ERK2
  activity at 1 µM: 91%
GCK
  activity at 1 µM: 100%
JNK2
  activity at 1 µM: 110%
NEK6
  activity at 1 µM: 105%
ERK8
  activity at 1 µM: 95%
PIM3
  activity at 1 µM: 101%
CK2; [3]
  remaining activity at 10 µM: 48%
CK2; [4]
  activity at 1 µM: 87%
EF2K
  activity at 1 µM: 111%
STK33
  activity at 1 µM: 111%
Aurora B
  activity at 1 µM: 106%
GSK3b
  activity at 1 µM: 94%
PRAK
  activity at 1 µM: 95%
PIM2
  activity at 1 µM: 101%
YES1
  activity at 1 µM: 110%
PAK6
  activity at 1 µM: 102%
IRAK4
  activity at 1 µM: 101%
CAMKKb; [3]
  remaining activity at 10 µM: 34%
CAMKKb; [4]
  activity at 1 µM: 75%
PKA
  activity at 1 µM: 104%
OSR1
  activity at 1 µM: 103%
IRR
  activity at 1 µM: 100%
MST2
  activity at 1 µM: 90%
MAPKAP-K3
  activity at 1 µM: 98%
DAPK1
  activity at 1 µM: 92%
HIPK2 [2]
  IC50: 330 nM
